The source made the active and inactive calls. The rule behind the calls is not given here.
Assays:
[1] = Slow-binding inhibition of Sporosarcina pasteurii CCM 2056 urease using varying levels of urea as substrate pretreated for 60 mins followed by substrate addition after 120 mins by phenol-hypochlorite reagent based colorimetric method
[2] = Slow-binding inhibition of Sporosarcina pasteurii CCM 2056 urease using varying levels of urea as substrate after 120 mins by phenol-hypochlorite reagent based colorimetric method
[3] = Irreversible inhibition of Sporosarcina pasteurii CCM 2056 urease assessed as reduction in ammonia production using urea as substrate pretreated for 60 mins followed by substrate addition measured for 120 mins by Berthelot colorimetric assay
[4] = Irreversible inhibition of Sporosarcina pasteurii CCM 2056 urease assessed as reduction in ammonia production using urea as substrate measured for 120 mins by Berthelot colorimetric assay
Sporosarcina pasteurii [5] = assay: Ratio of Kinact to Ki for Sporosarcina pasteurii CCM 2056 urease
[6] = Inhibition of Sporosarcina pasteurii CCM 2056 urease using urea as substrate pretreated for 60 mins followed by substrate addition after 15 mins by phenol-hypochlorite reagent based colorimetric method
[7] = Inhibition of Sporosarcina pasteurii CCM 2056 urease using urea as substrate after 15 mins by phenol-hypochlorite reagent based colorimetric method
[8] = Competitive inhibition of Sporosarcina pasteurii CCM 2056 urease using varying levels of urea as substrate after 10 mins by Lineweaver-Burk plot analysis
[9] = Competitive inhibition of Sporosarcina pasteurii CCM 2056 urease using varying levels of urea as substrate pretreated for 60 mins followed by substrate addition after 10 mins by Lineweaver-Burk plot analysis
Sporosarcina pasteurii [10] = assay: Potency index, ratio of Methyl (Z)-2-{[hydrogen(hydroxy)phosphoryl]methyl}-3-phenylpropenoate Ki to compound Ki for competitive inhibition of Sporosarcina pasteurii CCM 2056 urease using varying levels of urea as substrate pretreated for 60 mins followed by substrate addition measured after 10 mins
Sporosarcina pasteurii [11] = assay: Inhibition of Sporosarcina pasteurii CCM 2056 urease up to 2 mM using urea as substrate pretreated for 60 mins followed by substrate addition after 15 mins by phenol-hypochlorite reagent based colorimetric method
[12] = Inhibition of Proteus mirabilis urease

Molecule `COC(=O)/C(=C/c1ccc([N+](=O)[O-])cc1)CCP(=O)(O)O` has a Ki [1] of 362 µM and a Ki [2] of 54.1 µM.
Work on `C=C(C(=O)OC)C(OC(C)=O)c1ccc(C)cc1` (configuration not stated) yielded an IC50 [3] of 331 µM, an IC50 [4] greater than 1000 µM and a Ratio (Sporosarcina pasteurii [5]) of 5.62 M⁻¹ s⁻¹.
For `NCP(=O)(O)C/C(=C\c1ccccc1)C(=O)O`, the IC50 [6] was 1340 µM, the IC50 [7] was 1510 µM and the Ki [8] was 1420 µM. It also gave a Ki [9] of 1320 µM.
Work on `COC(=O)/C(=C/c1ccc(C)cc1)C[PH](=O)O` yielded a Ki [8] of 41.6 µM, a Ki [9] of 23.4 µM and a Ratio Ki (Sporosarcina pasteurii [10]) of 5 to 7.
With `COC(=O)/C(=C/c1ccccc1)CP(=O)(O)CN` the inhibition (Sporosarcina pasteurii [11]) was “inactive”.
With `Cc1ccc(CC(CP(=O)(O)O)C(=O)O)cc1` (configuration not stated) the Ki [8] was 88 µM and the Ki [9] was 90.2 µM.
Work on `O=C(O)/C(=C/c1ccc([N+](=O)[O-])cc1)CCP(=O)(O)O` yielded a Ki [1] of 433 µM and a Ki [2] of 59.9 µM.
For `COC(=O)/C(=C/c1ccc(F)cc1)CP(=O)(O)O`, the Ki [8] was 73.2 µM and the Ki [9] was 62.9 µM.
For `Cc1ccc(/C=C(\CCP(=O)(O)O)C(=O)O)cc1`, the Ki [9] was 66.7 µM.
Molecule `C=C(C(=O)OC)C(OC(C)=O)c1ccc(F)cc1` (configuration not stated) has an IC50 [3] of 4.15 µM, an IC50 [4] of 64.2 µM and a Ratio (Sporosarcina pasteurii [5]) of 525 M⁻¹ s⁻¹.
With `Cc1ccc(/C=C(\CP(=O)(O)O)C(=O)O)cc1` the Ki [12] was 0.485 µM, the Ki [8] was 0.674 µM and the Ki [9] was 0.594 µM.
Molecule `COC(=O)/C(=C/c1ccccc1)CP(=O)(O)CO` has an IC50 [6] of 309 µM, an IC50 [7] of 465 µM and a Ki [8] of 327 µM. For the same molecule, the Ki [9] was 293 µM.
In the case of `C=C(C(=O)OC)C(OC(C)=O)c1ccc(OC)cc1` (configuration not stated), the IC50 [3] is reported as 1240 µM, the IC50 [4] is reported as greater than 2000 µM and the Ratio (Sporosarcina pasteurii [5]) is reported as less than 1 M⁻¹ s⁻¹.
`COC(=O)/C(=C/c1ccccc1)CCP(=O)(O)O` showed an IC50 [6] of 4.18 µM, an IC50 [7] of 4.28 µM and a Ki [12] of 1.52 µM. The Ki [8] was 3.67 µM and the Ki [9] was 3.05 µM.
Molecule `O=C(O)/C(=C/c1ccc(F)cc1)CP(=O)(O)O` has a Ki [8] of 13.4 µM and a Ki [9] of 9.79 µM.
In the case of `C=C(C(=O)OC)C(OC(C)=O)c1ccccc1` (configuration not stated), the IC50 [3] is reported as 870 µM, the IC50 [4] is reported as greater than 1000 µM and the Ratio (Sporosarcina pasteurii [5]) is reported as less than 1 M⁻¹ s⁻¹.
With `O=C(O)/C(=C/c1ccc(F)cc1)CCP(=O)(O)O` the Ki [8] was 32.3 µM and the Ki [9] was 27.9 µM.
For `O=C(O)/C(=C/c1ccccc1)CP(=O)(O)CO`, the inhibition (Sporosarcina pasteurii [11]) was “inactive”.
`COC(=O)/C(=C/c1ccc(F)cc1)CCP(=O)(O)O` showed a Ki [8] of 48.4 µM and a Ki [9] of 47.4 µM.
Work on `COC(=O)/C(=C/c1ccc(NC(C)=O)cc1)C[PH](=O)O` yielded a Ki [8] of 20.6 µM, a Ki [9] of 13.4 µM and a Ratio Ki (Sporosarcina pasteurii [10]) of 5 to 7.
For `COC(=O)/C(=C/c1ccc(F)cc1)C[PH](=O)O`, the Ki [8] was 17.9 µM, the Ki [9] was 14.5 µM and the Ratio Ki (Sporosarcina pasteurii [10]) was 5 to 7.
`COC(=O)/C(=C/c1ccc(Cl)cc1)C[PH](=O)O` gave a Ki [8] of 24 µM, a Ki [9] of 16.7 µM and a Ratio Ki (Sporosarcina pasteurii [10]) of 5 to 7.
Molecule `COC(=O)/C(=C/c1ccccc1)C[PH](=O)O` has an IC50 [6] of 104 µM, an IC50 [7] of 201 µM and a Ki [8] of 177 µM. The Ki [9] was 97.5 µM.
With `COc1ccc(/C=C(\CP(=O)(O)O)C(=O)O)cc1` the Ki [8] was 28.9 µM and the Ki [9] was 34.4 µM.
`O=C(O)/C(=C/c1ccccc1)C[PH](=O)O` gave an IC50 [6] of 234 µM, an IC50 [7] of 344 µM and a Ki [8] of 208 µM. For the same molecule, the Ki [9] was 117 µM.
For `COC(=O)/C(=C/c1ccccc1)CP(=O)(O)O`, the inhibition (Sporosarcina pasteurii [11]) was “inactive”.
`COC(=O)/C(=C/c1ccc(Cl)cc1)CP(=O)(O)O` gave a Ki [8] of 88.9 µM and a Ki [9] of 81.2 µM.
`COC(=O)/C(=C/c1ccc(C)cc1)CP(=O)(O)O` gave a Ki [8] of 21.4 µM and a Ki [9] of 20.7 µM.
In the case of `C=C(C(=O)OC)C(OC(C)=O)c1ccc(Cl)cc1` (configuration not stated), the IC50 [3] is reported as 17.7 µM, the IC50 [4] is reported as 53.2 µM and the Ratio (Sporosarcina pasteurii [5]) is reported as 75.3 M⁻¹ s⁻¹.
In the case of `COC(=O)/C(=C/c1ccc(NC(C)=O)cc1)CP(=O)(O)O`, the Ki [8] is reported as 404 µM and the Ki [9] is reported as 386 µM.
`C=C(C(=O)OC)C(OC(C)=O)c1ccc([N+](=O)[O-])cc1` (configuration not stated) gave an IC50 [3] of 224 µM, an IC50 [4] of 679 µM and a Ratio (Sporosarcina pasteurii [5]) of 2.34 M⁻¹ s⁻¹.
In the case of `CP(=O)(O)C/C(=C\c1ccccc1)C(=O)O`, the inhibition (Sporosarcina pasteurii [11]) is reported as “inactive”.
In the case of `C=C(C(=O)OC)C(OC(C)=O)c1ccc(NC(C)=O)cc1` (configuration not stated), the IC50 [3] is reported as 302 µM, the IC50 [4] is reported as greater than 1000 µM and the Ratio (Sporosarcina pasteurii [5]) is reported as 2.78 M⁻¹ s⁻¹.
In the case of `O=C(O)/C(=C/c1ccc(Cl)cc1)CP(=O)(O)O`, the Ki [8] is reported as 19.6 µM and the Ki [9] is reported as 16.2 µM.
In the case of `COC(=O)/C(=C/c1ccccc1)CP(C)(=O)O`, the inhibition (Sporosarcina pasteurii [11]) is reported as “inactive”.
With `O=C(O)/C(=C/c1ccccc1)CP(=O)(O)O` the IC50 [6] was 27.8 µM, the IC50 [7] was 44.5 µM and the Ki [8] was 16.1 µM. The Ki [9] was 13 to 13.1 µM.
`COC(=O)/C(=C/c1ccc(OC)cc1)C[PH](=O)O` showed a Ki [8] of 157 µM and a Ki [9] of 149 µM.
Molecule `COC(=O)/C(=C/c1ccc(OC)cc1)CCP(=O)(O)O` has a Ki [8] of 327 µM and a Ki [9] of 292 µM.
`COC(=O)/C(=C/c1ccc(OC)cc1)CP(=O)(O)O` gave a Ki [8] of 239 µM and a Ki [9] of 229 µM.
Work on `O=C(O)/C(=C/c1ccccc1)CCP(=O)(O)O` yielded an IC50 [6] of 48.4 µM, an IC50 [7] of 83.4 µM and a Ki [8] of 55.6 µM. For the same molecule, the Ki [9] was 66.7 µM.
For `Cc1ccc(/C=C(\C[PH](=O)O)C(=O)O)cc1`, the Ki [9] was 23.4 µM.

Source: ChEMBL document CHEMBL4033625, “Novel organophosphorus scaffolds of urease inhibitors obtained by substitution of Morita-Baylis-Hillman adducts with phosphorus nucleophiles” (Eur J Med Chem, 2017)
